Assay results published in PubChem BioAssay (NCI).
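Following 48 hours of exposure in 96-well plates, responses at five concentrations were used to interpolate endpoints linearly. Definition used: TGI = concentration required for complete inhibition of growth.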

Tests used:
Assay in all cases: NCI anticancer screen, dose series, 48 h
786-0 renal = test system: 786-0 renal
A549 NSCLC = test system: A549 NSCLC
ACHN renal = test system: ACHN renal
CAKI-1 renal = test system: CAKI-1 renal
CCRF-CEM leukemia = test system: CCRF-CEM leukemia
COLO 205 colon = test system: COLO 205 colon
DLD-1 colon = test system: DLD-1 colon
DMS 114 small cell lung = test system: DMS 114 small cell lung
DMS 273 small cell lung = test system: DMS 273 small cell lung
EKVX NSCLC = test system: EKVX NSCLC
HCT-116 colon = test system: HCT-116 colon
HCT-15 colon = test system: HCT-15 colon
HL-60(TB) leukemia = test system: HL-60(TB) leukemia
HOP-62 NSCLC = test system: HOP-62 NSCLC
HOP-92 NSCLC = test system: HOP-92 NSCLC
HT29 colon = test system: HT29 colon
IGROV1 ovarian = test system: IGROV1 ovarian
K-562 leukemia = test system: K-562 leukemia
KM12 colon = test system: KM12 colon
KM20L2 colon = test system: KM20L2 colon
LOX IMVI melanoma = test system: LOX IMVI melanoma
LXFL 529 NSCLC = test system: LXFL 529 NSCLC
M14 melanoma = test system: M14 melanoma
M19-MEL melanoma = test system: M19-MEL melanoma
MALME-3M melanoma = test system: MALME-3M melanoma
MOLT-4 leukemia = test system: MOLT-4 leukemia
NCI-H226 lung = test system: NCI-H226 lung
NCI-H23 lung = test system: NCI-H23 lung
NCI-H522 lung = test system: NCI-H522 lung
OVCAR-3 ovarian = test system: OVCAR-3 ovarian
OVCAR-4 ovarian = test system: OVCAR-4 ovarian
OVCAR-5 ovarian = test system: OVCAR-5 ovarian
OVCAR-8 ovarian = test system: OVCAR-8 ovarian
RPMI-8226 leukemia = test system: RPMI-8226 leukemia
SF-268 CNS = test system: SF-268 CNS
SF-295 CNS = test system: SF-295 CNS
SF-539 CNS = test system: SF-539 CNS
SK-MEL-2 melanoma = test system: SK-MEL-2 melanoma
SK-MEL-28 melanoma = test system: SK-MEL-28 melanoma
SK-MEL-5 melanoma = test system: SK-MEL-5 melanoma
SK-OV-3 ovarian = test system: SK-OV-3 ovarian
SN12C renal = test system: SN12C renal
SNB-19 CNS = test system: SNB-19 CNS
SNB-75 CNS = test system: SNB-75 CNS
SNB-78 CNS = test system: SNB-78 CNS
SR leukemia = test system: SR leukemia
SW-620 colon = test system: SW-620 colon
TK-10 renal = test system: TK-10 renal
U251 CNS = test system: U251 CNS
UACC-257 melanoma = test system: UACC-257 melanoma
UACC-62 melanoma = test system: UACC-62 melanoma
UO-31 renal = test system: UO-31 renal
XF 498 CNS = test system: XF 498 CNS
A498 renal = test system: A498 renal
HCC-2998 colon = test system: HCC-2998 colon
HOP-18 NSCLC = test system: HOP-18 NSCLC
NCI-H460 lung = test system: NCI-H460 lung
BT-549 breast = test system: BT-549 breast
DU-145 prostate = test system: DU-145 prostate
HS 578T breast = test system: HS 578T breast
MCF7 breast = test system: MCF7 breast
MDA-MB-231 breast = test system: MDA-MB-231 breast
MDA-MB-435 = test system: MDA-MB-435
MDA-N = test system: MDA-N
NCI/ADR-RES ovarian = test system: NCI/ADR-RES ovarian
PC-3 prostate = test system: PC-3 prostate
RXF 393 renal = test system: RXF 393 renal
T-47D breast = test system: T-47D breast

Measured: TGI

CC(=O)N1CC(=O)NC1=S
not listed: A498 renal | HCC-2998 colon | HOP-18 NSCLC | NCI-H460 lung | BT-549 breast | DU-145 prostate | HS 578T breast | MCF7 breast | MDA-MB-231 breast | MDA-MB-435 | MDA-N | NCI/ADR-RES ovarian | PC-3 prostate | RXF 393 renal | T-47D breast
> 100 µM: all other assays above

COc1ccc(C(=O)C(C(=O)C(=O)NC2C3CC4CC(C3)CC2C4)c2ccc(OC)cc2)cc1 (configuration not stated)
not listed: XF 498 CNS | BT-549 breast | DU-145 prostate | HS 578T breast | MCF7 breast | MDA-MB-231 breast | MDA-MB-435 | MDA-N | NCI/ADR-RES ovarian | PC-3 prostate | RXF 393 renal | T-47D breast
> 100 µM: all other assays above

O=C1C(c2c(O)[nH]c3ccccc23)=Nc2ccc(Br)cc21
68.1 µM: NCI-H226 lung
65.2 µM: TK-10 renal
61.1 µM: EKVX NSCLC
18.2 µM: MCF7 breast
69.5 µM: OVCAR-4 ovarian
21 µM: A498 renal
89.6 µM: SF-295 CNS
77 µM: ACHN renal | MDA-MB-231 breast
31 µM: RXF 393 renal
28.8 µM: 786-0 renal
48 µM: U251 CNS
74.1 µM: HOP-62 NSCLC
77.2 µM: BT-549 breast
34.9 µM: SNB-75 CNS
76.2 µM: SNB-19 CNS
49.7 µM: PC-3 prostate
40.8 µM: MOLT-4 leukemia
54 µM: UACC-62 melanoma
93.9 µM: SK-MEL-2 melanoma
50.4 µM: HOP-92 NSCLC
72.8 µM: HS 578T breast
70.7 µM: UO-31 renal
49.4 µM: OVCAR-8 ovarian
90.2 µM: SF-268 CNS
not listed: DLD-1 colon | DMS 114 small cell lung | DMS 273 small cell lung | KM20L2 colon | LXFL 529 NSCLC | M19-MEL melanoma | SF-539 CNS | SNB-78 CNS | XF 498 CNS | HOP-18 NSCLC
> 100 µM: all other assays above
